# Measurements reported in patent US9856250B2, “Substituted tropane derivatives” (TOA EIYO LTD., priority 2014, dated 2018).
# pIC50: −log10 of the molar value. Read-outs that look alike come from different tables or passages of the source.
# Tests used:
# [1] = test system: Salmonella typhimurium TA98 and TA100; test: Reverse mutation test (Ames test), pre-incubation method; format: cell-based; conditions: strains TA98 and TA100; for Ames test S9 (−): absence of metabolic activation system (S9mix (−)); for Ames test S9 (+): presence of metabolic activation system (rat liver S9mix (+))
# Description: The presence or absence of genotoxicity in the compounds of the present invention was evaluated by a reverse mutation test (Ames test) using bacteria. The test was performed by a pre-incubation method using two bacterial strains of Salmonella typhimurium TA98 and TA100, in the absence of a metabolic activation system (S9mix (−)) and in the presence of a metabolic activation system (S9mix (+)). The compounds were dissolved in dimethyl sulfoxide (DMSO), and thus test liquids were prepared. Regarding the negative control, the solvent DMSO was used. Regarding the positive control, 2-(2-furyl)-3-(5-nitro-2-furyl)acrylamide (AF-2) was used for S9mix (−), and 2-aminoanthracene (2-AA) was used for S9mix (+).
# 0.1 mL of a test liquid was introduced into a sterilized test tube, and then 0.5 mL of a 0.1 mol/L sodium phosphate buffer solution (pH 7.4) was added to the test tube in the case of S9mix (−), or 0.5 mL of rat liver S9mix was added to the test tube in the case of S9mix (+). Furthermore, 0.1 mL of a precultured test strain suspension was added to the test tube, and then the test strain was subjected to shaking culture for 20 minutes at 37° C. (preincubation). […] Subsequently, the content of the test tube was superposed on a minimum glucose agar medium plate and was spread evenly. The plate was cultured for 48 hours at 37° C. in a thermostat. After completion of culture, the number of reverse mutation colonies grown on the plate was measured using a colony counter. Regarding the determination, a case in which the number of reverse mutation colonies increased to twice or more of the number of colonies of the negative control, and concentration-dependency was recognized, was regarded as positive. […]
# [2] = biological target: human T-type calcium channels (human Cav3.2) (Homo sapiens (Human), UniProt O95180); test: Antagonistic activity against T-type calcium channels (Cav3.2), Fura2 intracellular calcium assay in HEK293 cells; format: cell-based
# Description: For representative compounds of the present invention, the antagonistic activity against T-type calcium channels (Cav3.2) was examined by the Test Examples described below. For the respective tests, human embryo kidney cells (HEK293 cells) in which human T-type calcium channels (human Cav3.2) were stably expressed were used.
# The HEK293 cells having human Cav3.2 stably expressed therein were cultured at 37° C. in Alpha-MEM, to which 10% (v/v) fetal bovine serum (FBS), penicillin (100 U/mL), streptomycin (100 μg/mL), and G418 ([…]) had been added. The cells were suspended in the culture liquid and were inoculated onto a 96-well plate. Subsequently, the cells were cultured for 48 hours. The culture liquid was removed, and the liquid was changed to S-MEM, to which 5% (v/v) FBS, calcium chloride (0.5 mmol/L), L-glutamine (2 mmol/L), L-alanine (8.9 ng/mL), L-asparagine (13.2 ng/mL), L-aspartic acid (1.33 ng/mL), L-glutamic acid (14.7 ng/mL), glycine (7.5 ng/mL), L-proline (11.5 ng/mL, L-serine (10.5 ng/mL), penicillin (100 U/mL), and streptomycin (100 μg/mL) had been added. The cells were cultured for another 24 hours. The culture liquid was removed again, and the cells were washed with an assay buffer (140 mmol/L sodium chloride, 5 mmol/L potassium chloride, 0.5 mmol/L magnesium chloride, 0.5 mmol/L calcium chloride, 10 mmol/L glucose, 0.4 mmol/L magnesium sulfate, 10 mmol/L HEPES, and […] sulfinpyrazone, pH 7.4) that had been kept warm at 37° C. Subsequently, an assay buffer prepared by dissolving Fura2-AM, which is a fluorescent Ca^2+ indicator, to a concentration of 5 μM, was added to the cells, and the system was incubated for 30 minutes at 37° C. The assay buffer having Fura2 dissolved therein was removed, and the cells were washed with the assay buffer. Subsequently, an assay buffer prepared by adding a test compound was added to the cells, and the system was incubated for 15 minutes. The plate was mounted on a fluorescence analyzer (FLEX STATION II, Molecular Devices, LLC), and the baseline was measured for 20 seconds. Subsequently, any change in the intracellular calcium concentration that was induced when an assay buffer prepared by adding 100 mmol/L calcium chloride was added to the cells, was measured (excited at 340 nm or 380 nm, and detected at 510 nm). The fluorescence intensity ratios obtainable at the respective wavelengths were calculated.
# Meanwhile, the test compound solution was prepared by dissolving each test compound in DMSO to a concentration of 10 mmol/L, and then adjusting the concentration with the assay buffer so as to obtain the set concentration. For the control solution, DMSO was used instead of a test compound.
# The inhibitory activity level (%) of a test compound was calculated by subtracting the average value of the fluorescence intensity ratio for a period of 0 to 20 seconds after initiation of measurement, from the average value of the fluorescence intensity ratio for a period of 45 to 50 seconds after initiation of measurement, taking the value obtained using the control solution as the maximum activity of Cav3.2, and comparing this value with the activity in the presence of the test compound.
# Calculation of IC50 Value:
# The inhibitory activity of each test compound was measured at concentrations of […], and the IC50 value was calculated using the curve fitting formula (Model 08: sigmoidal inhibition curve) of ASSAY EXPLORER (Symyx Technologies, Inc.).
# Average of RFU value obtained for 25 to 30 seconds after the addition of a […] assay buffer after treatment with the control solution (for 45 to 50 seconds after the initiation of measurement). The RFU in the formula represents the Relative Fluorescence Unit.
# [3] = HEK293 cells stably expressing human Cav3.2, Fura2 fluorescence ratio after calcium chloride addition, read-out: IC50
# human T-type calcium channels (human Cav3.2), sequence (O95180 whole entry): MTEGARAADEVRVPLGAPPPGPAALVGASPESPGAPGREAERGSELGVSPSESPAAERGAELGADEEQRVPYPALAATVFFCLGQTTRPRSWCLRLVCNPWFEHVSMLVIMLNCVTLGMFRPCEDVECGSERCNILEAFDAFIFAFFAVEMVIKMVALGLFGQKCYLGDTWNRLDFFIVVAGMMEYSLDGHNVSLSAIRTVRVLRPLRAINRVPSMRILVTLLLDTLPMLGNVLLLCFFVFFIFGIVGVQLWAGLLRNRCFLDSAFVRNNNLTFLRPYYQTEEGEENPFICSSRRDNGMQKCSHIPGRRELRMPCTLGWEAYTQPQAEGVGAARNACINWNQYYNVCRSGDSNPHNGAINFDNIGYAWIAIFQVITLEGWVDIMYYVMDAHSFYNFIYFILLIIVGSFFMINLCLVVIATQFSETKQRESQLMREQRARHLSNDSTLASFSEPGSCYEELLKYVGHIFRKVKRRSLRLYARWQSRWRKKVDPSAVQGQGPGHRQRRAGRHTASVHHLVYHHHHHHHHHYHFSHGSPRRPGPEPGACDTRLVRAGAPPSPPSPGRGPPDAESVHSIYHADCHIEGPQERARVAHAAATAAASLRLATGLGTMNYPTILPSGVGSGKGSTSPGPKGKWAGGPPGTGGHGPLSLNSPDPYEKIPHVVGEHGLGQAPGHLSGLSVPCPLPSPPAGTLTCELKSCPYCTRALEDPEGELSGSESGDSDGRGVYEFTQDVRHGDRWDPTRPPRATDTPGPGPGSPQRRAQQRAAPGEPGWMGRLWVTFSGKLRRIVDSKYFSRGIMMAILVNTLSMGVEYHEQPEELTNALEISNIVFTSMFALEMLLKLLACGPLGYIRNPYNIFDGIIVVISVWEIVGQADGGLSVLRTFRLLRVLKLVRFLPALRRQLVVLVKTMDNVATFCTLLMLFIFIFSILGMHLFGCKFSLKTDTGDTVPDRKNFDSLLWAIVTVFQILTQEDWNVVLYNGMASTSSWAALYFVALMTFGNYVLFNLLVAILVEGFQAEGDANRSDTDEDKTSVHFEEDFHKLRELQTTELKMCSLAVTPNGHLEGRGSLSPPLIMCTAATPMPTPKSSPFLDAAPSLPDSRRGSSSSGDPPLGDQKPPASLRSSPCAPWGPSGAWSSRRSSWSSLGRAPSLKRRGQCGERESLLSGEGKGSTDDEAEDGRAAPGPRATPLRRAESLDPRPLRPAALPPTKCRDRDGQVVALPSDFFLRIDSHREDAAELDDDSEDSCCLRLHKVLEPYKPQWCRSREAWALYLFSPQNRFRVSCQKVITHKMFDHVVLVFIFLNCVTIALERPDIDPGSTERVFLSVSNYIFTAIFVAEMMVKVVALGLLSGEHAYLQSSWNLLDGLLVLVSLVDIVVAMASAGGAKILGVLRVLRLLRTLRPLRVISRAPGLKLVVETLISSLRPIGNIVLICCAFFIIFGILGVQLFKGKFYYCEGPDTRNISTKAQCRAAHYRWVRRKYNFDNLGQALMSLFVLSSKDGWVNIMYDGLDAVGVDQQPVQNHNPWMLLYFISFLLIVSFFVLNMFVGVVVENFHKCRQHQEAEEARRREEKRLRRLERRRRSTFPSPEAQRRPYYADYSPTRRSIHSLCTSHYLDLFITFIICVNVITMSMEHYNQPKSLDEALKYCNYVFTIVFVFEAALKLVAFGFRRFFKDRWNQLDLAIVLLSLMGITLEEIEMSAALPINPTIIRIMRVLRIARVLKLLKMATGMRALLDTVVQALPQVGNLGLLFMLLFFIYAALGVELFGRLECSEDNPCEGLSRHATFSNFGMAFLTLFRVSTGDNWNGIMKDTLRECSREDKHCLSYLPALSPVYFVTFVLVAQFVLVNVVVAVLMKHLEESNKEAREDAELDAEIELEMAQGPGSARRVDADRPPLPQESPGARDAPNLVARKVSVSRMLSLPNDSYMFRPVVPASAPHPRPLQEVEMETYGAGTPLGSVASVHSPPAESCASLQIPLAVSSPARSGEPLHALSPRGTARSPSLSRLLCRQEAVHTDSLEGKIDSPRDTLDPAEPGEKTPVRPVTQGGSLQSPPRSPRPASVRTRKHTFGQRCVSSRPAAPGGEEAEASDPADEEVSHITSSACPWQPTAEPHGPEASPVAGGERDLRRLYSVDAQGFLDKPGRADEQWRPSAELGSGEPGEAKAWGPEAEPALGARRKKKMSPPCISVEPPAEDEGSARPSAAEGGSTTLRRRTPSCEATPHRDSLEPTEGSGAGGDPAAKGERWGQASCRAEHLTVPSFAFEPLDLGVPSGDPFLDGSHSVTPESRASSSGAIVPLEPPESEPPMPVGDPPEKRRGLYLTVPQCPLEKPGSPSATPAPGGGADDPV
SMILES,Ames test S9 (−) [1],Ames test S9 (+) [1],pIC50 [2],"pIC50 [2, 3]"
"Cc1cccc2[nH]c(CC3CCN(CC(=O)NC(C)(C)C)CC3)nc12 [Control Compound 1, N-tert-Butyl-2-[4-(4-methyl-1H-benzimidazol-2-yl)methylpiperidin-1-yl]acetamide, reference compound]",Negative,Positive,–,–
"COc1cccc2[nH]c(CC3CCN(CC(=O)NC(C)(C)C)CC3)nc12 [Control Compound 2, N-tert-Butyl-2-[4-(4-methoxy-1H-benzimidazol-2-yl)methylpiperidin-1-yl]acetamide, reference compound]",Negative,Positive,–,–
"CC(C)(C)NC(=O)CN1CCC(Cc2nc3ccc4c(c3[nH]2)OCCO4)CC1.Cl.Cl [Control Compound 3, N-tert-Butyl-2-[4-(5,6-dihydro-1H-[1,4]dioxino[2,3-e]benzimidazol-2-yl)methylpiperidin-1-yl]acetamide dihydrochloride, reference compound]",Negative,Positive,–,–
CC(C)(C)NC(=O)CN1[C@@H]2CC[C@H]1C[C@H](CNC(=O)c1cc(F)cc(Cl)c1)C2 [Example 54],Negative,Negative,7.70,–
"Cc1cccc2[nH]c(C[C@@H]3C[C@H]4CC[C@@H](C3)N4CC(=O)NC(C)(C)C)nc12 [Example 120, N-tert-Butyl-2-[(exo)-3-(4-methyl-1H-benzimidazol-2-yl)methyl-8-azabicyclo[3.2.1]octan-8-yl]acetamide]",–,–,–,7.23
COc1ccc2[nH]c(C[C@@H]3C[C@H]4CC[C@@H](C3)N4CC(=O)NC(C)(C)C)nc2c1OC [Example 122],–,–,–,6.86
"CC(C)(C)NC(=O)CN1[C@@H]2CC[C@H]1C[C@H](Cc1nc3c4c(ccc3[nH]1)OCCO4)C2 [Example 123, N-tert-Butyl-2-[(exo)-3-(5,6-dihydro-1H-[1,4]dioxino[2,3-e]benzimidazol-2-yl)methyl-8-azabicyclo[3.2.1]octan-8-yl]acetamide]",Negative,Negative,–,–
COc1cccc2[nH]c(C[C@@H]3C[C@H]4CC[C@@H](C3)N4CC(=O)NC(C)(C)C)nc12 [Example 124],–,–,–,7.02
"CC(C)(C)CNC(=O)C[C@H]1C[C@H]2CC[C@@H](C1)N2CC(=O)NC(C)(C)C [Example 127, 2-[(endo)-8-(tert-Butylcarbamoyl)methyl-8-azabicyclo[3.2.1]octan-3-yl]-N-(2,2-dimethylpropyl) acetamide]",–,–,–,7.14
"CC(C)(C)NC(=O)CN1[C@@H]2CC[C@H]1C[C@@H](CC(=O)NC13CC4CC(CC(C4)C1)C3)C2 [Example 129, N-(Adamantan-1-yl)-2-[(endo)-8-(tert-butylcarbamoyl)methyl-8-azabicyclo[3.2.1]octan-3-yl]acetamide]",–,–,–,7.18
CC(C)(C)NC(=O)CN1[C@@H]2CC[C@H]1C[C@@H](CC(=O)NC13CC4CC(CC1C4)C3)C2 [Example 131],–,–,–,7.31
"CC(C)(C)NC(=O)CN1[C@@H]2CC[C@H]1C[C@@H](CNC(=O)C13CC4CC(CC(C4)C1)C3)C2 [Example 144, N-[(endo)-8-(tert-Butylcarbamoyl)methyl-8-azabicyclo[3.2.1]octan-3-yl]methyladamantane-1-carboxamide]",–,–,–,7.36
"COc1cccc2[nH]c(C[C@H]3C[C@H]4CC[C@@H](C3)N4CC(=O)NC(C)(C)C)nc12 [Example 145, N-tert-Butyl-2-[(endo)-3-(4-methoxy-1H-benzimidazol-2-yl)methyl-8-azabicyclo[3.2.1]octan-8-yl]acetamide]",Negative,Negative,–,7.01
Cc1cccc2[nH]c(C[C@H]3C[C@H]4CC[C@@H](C3)N4CC(=O)NC(C)(C)C)nc12 [Example 147],–,–,–,7.08
"CC(C)(C)NC(=O)CN1[C@@H]2CC[C@H]1C[C@@H](CC(=O)NC13CC4CC(CC(C4)O1)C3)C2.Cl [Example 152, 2-[(endo)-8-(tert-Butylcarbamoyl)methyl-8-azabicyclo[3.2.1]octan-3-yl]-N-(2-oxaadamantan-1-yl)acetamide hydrochloride]",Negative,Negative,–,–
COc1cc(F)c2nc(C[C@@H]3C[C@H]4CC[C@@H](C3)N4CC(=O)NC(C)(C)C)[nH]c2c1 [Example 154],–,–,7.11,–
COc1ccc2[nH]c(C[C@@H]3C[C@H]4CC[C@@H](C3)N4CC(=O)NC(C)(C)C)nc2c1OC [Example 155],Negative,Negative,–,–
COc1ccc(OC)c2[nH]c(C[C@@H]3C[C@H]4CC[C@@H](C3)N4CC(=O)NC(C)(C)C)nc12 [Example 172],Negative,Negative,–,–
Cc1cc(C(=O)NC[C@@H]2C[C@H]3CC[C@@H](C2)N3CC(=O)NC(C)(C)C)n(C)n1 [Example 174],Negative,Negative,–,–
